Laboratory results taken from PubChem BioAssay AID328 (DTP/NCI, 2004).
Where “and” joins values, the source holds several entries; their conditions need not be identical. Identical values can stand only once. Toxic doses and inconclusive results are not listed. Rule for the calls: active = survival T/C of 150% or more; inactive = T/C below 125% in these data.

Tested on: BDF1 mice, P388 leukemia ip, median survival T/C
Assay: NCI In Vivo Anticancer Drug Screen. Data for tumor model P388 Leukemia (intraperitoneal) in B6D2F1 (BDF1) mice
Details: endpoint: median survival time, higher = longer survival
In short: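 In tumour-bearing mice, survival after compound treatment is set against the vehicle group and given as a quotient.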

[1] = dose: 100.0 mg/kg/injection, schedule: Q04DX003 (ip), vehicle: saline with Tween-80
[2] = dose: 200.0 mg/kg/injection, schedule: Q04DX003 (ip), vehicle: saline with Tween-80
[3] = dose: 50.0 mg/kg/injection, schedule: Q01DX009 (ip), vehicle: saline with Tween-80
[4] = dose: 100.0 mg/kg/injection, schedule: Q01DX009 (ip), vehicle: saline with Tween-80
[5] = dose: 100.0 mg/kg/injection, schedule: Q04DX003 (ip), vehicle: saline
[6] = dose: 200.0 mg/kg/injection, schedule: Q04DX003 (ip), vehicle: saline
[7] = dose: 400.0 mg/kg/injection, schedule: Q04DX003 (ip), vehicle: saline

Measured: T/C

CCCCCCCCCCCC(c1ccccc1)[N+](C)(C)C (centres undefined)
inactive: dose: 1.0 mg/kg/injection, schedule: Q01DX010 (ip), vehicle: saline 100 % of control | dose: 2.0 mg/kg/injection, schedule: Q01DX010 (ip), vehicle: saline 104 % of control | dose: 4.0 mg/kg/injection, schedule: Q01DX010 (ip), vehicle: saline 116 % of control | dose: 4.0 mg/kg/injection, schedule: Q04DX003 (ip), vehicle: saline 113 % of control | dose: 8.0 mg/kg/injection, schedule: Q04DX003 (ip), vehicle: saline 118 % of control | dose: 16.0 mg/kg/injection, schedule: Q04DX003 (ip), vehicle: saline 100 % of control

Cc1ccc2ccccc2c1Cc1c(C=O)[nH]c(=S)[nH]c1=O
inactive: [1] 104 % of control | [2] 122 % of control

NC(=O)c1c(F)c(F)c(F)c(F)c1F
inactive: dose: 100.0 mg/kg/injection, schedule: Q01DX001 (ip), vehicle: saline with Tween-80 107 % of control | dose: 200.0 mg/kg/injection, schedule: Q01DX001 (ip), vehicle: saline with Tween-80 115 % of control | dose: 400.0 mg/kg/injection, schedule: Q01DX001 (ip), vehicle: saline with Tween-80 110 % of control

Ic1ccccc1C[N+]12CN3CN(CN(C3)C1)C2
inactive: [3] 108 % of control | dose: 60.0 mg/kg/injection, schedule: Q01DX009 (ip), vehicle: alcohol 95 % of control | dose: 85.0 mg/kg/injection, schedule: Q01DX009 (ip), vehicle: alcohol 95 % of control | [4] 120 % of control | dose: 100.0 mg/kg/injection, schedule: Q01DX009 (ip), vehicle: saline 115 % of control | [1] 110 % of control | [5] 118 % of control | dose: 132.0 mg/kg/injection, schedule: Q01DX009 (ip), vehicle: saline with Tween-80 111 % of control | [2] 110 % of control | [6] 113 % of control | dose: 300.0 mg/kg/injection, schedule: Q01DX009 (ip), vehicle: saline with Tween-80 100 % of control and 123 % of control | dose: 400.0 mg/kg/injection, schedule: Q04DX003 (ip), vehicle: saline with Tween-80 95 % of control | [7] 113 % of control

O=C(CSc1ccccc1)NCc1cnccn1
inactive: dose: 50.0 mg/kg/injection, schedule: Q04DX003 (ip), vehicle: saline 108 % of control | [5] 92 % of control | [6] 104 % of control | [7] 100 % of control

CCN1CCCC(Nc2nc(C(Cl)(Cl)Cl)nc3cc(Cl)ccc23)C1 (centres undefined)
inactive: dose: 25.0 mg/kg/injection, schedule: Q01DX009 (ip), vehicle: saline with Tween-80 109 % of control | [3] 113 % of control | [4] 104 % of control

CN=Cc1ccc([N+](=O)[O-])cc1
inactive: dose: 100.0 mg/kg/injection, schedule: Q01DX001 (ip), vehicle: Klucel (hydroxypropylcellulose) (HPC) 113 % of control | dose: 200.0 mg/kg/injection, schedule: Q01DX001 (ip), vehicle: Klucel (hydroxypropylcellulose) (HPC) 104 % of control

O=S(=O)(OCC#CCOS(=O)(=O)c1ccc(Cl)c(Cl)c1)c1ccc(Cl)c(Cl)c1
inactive: dose: 12.5 mg/kg/injection, schedule: Q01DX009 (ip), vehicle: Klucel (hydroxypropylcellulose) (HPC) 99 % of control | dose: 25.0 mg/kg/injection, schedule: Q01DX009 (ip), vehicle: Klucel (hydroxypropylcellulose) (HPC) 112 % of control | dose: 35.0 mg/kg/injection, schedule: Q01DX009 (ip), vehicle: Klucel (hydroxypropylcellulose) (HPC) 93 % of control | dose: 50.0 mg/kg/injection, schedule: Q01DX009 (ip), vehicle: Klucel (hydroxypropylcellulose) (HPC) 87 % of control | dose: 75.0 mg/kg/injection, schedule: Q01DX009 (ip), vehicle: Klucel (hydroxypropylcellulose) (HPC) 101 % of control

C=C1CC(C2CCC(C)(C)C2)OC1=O (centres undefined)
inactive: dose: 25.0 mg/kg/injection, schedule: Q04DX002 (ip), vehicle: saline with Tween-80 102 % of control | dose: 50.0 mg/kg/injection, schedule: Q04DX002 (ip), vehicle: saline with Tween-80 100 % of control

Cc1cnc2nc(N)[nH]c(=O)c2c1
inactive: dose: 37.5 mg/kg/injection, schedule: Q04DX003 (ip), vehicle: saline sonified 100 % of control | dose: 75.0 mg/kg/injection, schedule: Q04DX003 (ip), vehicle: saline sonified 110 % of control | dose: 150.0 mg/kg/injection, schedule: Q04DX003 (ip), vehicle: saline sonified 100 % of control

BrCc1cc2ccccc2cc1CBr
inactive: dose: 25.0 mg/kg/injection, schedule: Q04DX003 (ip), vehicle: saline 116 % of control
